# Measurements reported in PMC6897945, “CytA, a reductase in the cytorhodin biosynthesis pathway, inactivates anthracycline drugs in Streptomyces” (Communications Biology, 2019).
# Columns and labels:
# [1] = test system: Streptomyces sp. SCSIO 1666 ΔcytA mutant strain; experiment: Growth inhibition zone assay; type: cell-based; details: Streptomyces, read-out: inhibition zone
# Text: (§1) We also noted that the ∆cytA mutant strain accumulated small amounts (80~100-fold lower than WT producer) of the immediate biosynthetic precursors of cosmomycins A (3) and B (4). The in vitro antimicrobial activities of compounds 1–13 against a panel of gram-positive bacteria (Table 2) provided some insight into the possible physiological significance of CytA-catalyzed reductions. Furthermore, we had observed that the ΔcytA mutant strain is clearly impaired relative to the WT strain upon addition of 6 or 7 as potential substrates. To evaluate this effect, we probed the sensitivity of Streptomyces sp. SCSIO 1666 to 6 and 7 in an inhibition zone assay (Fig. 3). A clear inhibition zone (16 mm) using the ΔcytA mutant plate was observed when supplemented with 1 μg of 6 or 7. […] That CytA production endows cosmomycin resistance provides strong evidence that the cytA gene directly confers Streptomyces. sp. SCSIO 1666 with the ability to protect itself from the effects by self-resistance to cosmomycins C and D.
# (§2) Fig. 3 Sensitivity of Streptomyces sp. SCSIO 1666 toward cosmomycin C (6) and cosmomycin D (7) (1 μg) as determined by growth inhibition zone assays. […] TEXT PRINTED IN THE PICTURE: 6: ΔcytA mutant strain: 16 mm DOUBTS OF THE COPYIST ABOUT THIS PICTURE: 6, ΔcytA mutant strain: the small yellow print reads 16 mm, but it could be 15 or 18 mm / 6: the yellow double arrow marked 16 mm spans the zone around disc 6. The picture prints no measure name, so it may be the inhibition zone diameter or only a scale mark
# [2] = test system: Streptomyces sp. SCSIO 1666 WT; experiment: Growth inhibition zone assay; type: cell-based; details: WT producer, paper discs impregnated with compound, 1 μg
# Text: as §1, §2
# CytA = experiment: Enzyme kinetics of CytA (formation of deglycosylation products, anaerobic); type: biochemical, Streptomyces sp. SCSIO 1666; details: for fold more efficient CytA processing than for 22–26: relative to clinical anthracyclines 22–26; for Km / kcat: substrate of CytA, 0.5 μM CytA, 20 μM NADH, anaerobic
# Description: Enzymatic reactions were carried out under anaerobic conditions in an anaerobic workstation (Don Whitley Scientific A45) containing a gas phase of N2/H2/CO2 (80:10: 10%, by vol.). ^1H, ^13C, and 2D (COSY, HMQC, HMBC and NOESY) NMR spectra were recorded at 25 °C with an Avance 700 MHz spectrometer instruments (Bruker). High-resolution mass spectra were obtained with a Maxis quadrupole-time-of-flight mass spectrometer (Bruker).
# To validate the in vitro biochemical activities of CytA, we overexpressed and purified this enzyme as a soluble N-terminally His6-tagged protein from E. coli (Fig. 2a). Tris-Cl buffer was made O2 free by boiling, followed by cooling under N2 flow; NADH stock solution (dissolved in Tris-Cl), substrate stock solution (dissolved in DMSO), and enzyme solution (dissolved in Tris-Cl supplemented with 10% glycerin) were subjected to O2 eliminating process in the anaerobic workstations for at least two cycles (40 min for one cycle). CytA enzymatic activity was tested in 50 μL volume containing 50 mM Tris-Cl (pH 8.0), 25 μM substrate, 0.5 μM CytA, and 20 μM NADH, at 37 °C for 30 min. The reaction was quenched with the addition to 2 volumes MeOH. After centrifugation to remove protein, supernatants were analyzed with Agilent HPLC equipment using a Phenomenex Prodigy ODS column S5 (150 × 4.60 mm, 5 μ) and UV detection at 254 and 500 nm. Samples were eluted with a gradient elution of phase A containing 0.1% TFA in ddH2O and phase B containing 100% acetonitrile, at a flow rate of 1 mL/min.
# Kinetic analyses of CytA with putative substrates 6–10, daunorubicin, doxorubicin, idarubicin, epirubicin and pirarubicin, involved a reaction volume of 20 μL consisting of 50 mM Tris-Cl (pH 8.0), 0.5 μM CytA, 20 μM NADH, […]
# All assays were performed in triplicate and Km and Vmax values were calculated on the basis of curve fitting to the Michaelis-Menten equation: v = Vmax *[S]/(Km + [S]) (Supplementary Fig. 7).
# For kinetics of CytA, Origin 9.0 (OriginLab Co.) was used to analyze on the basis of curve fitting to the Michaelis-Menten equation. Experiments were performed in triplicate independently. For antibacterial activity, experiments were performed in triplicate using 96-well plates.
# MDA-MB-468 cells = details: read-out: IC50 against MDA-MB-468 cells; cited from earlier work
SMILES,zone of inhibition at 1 µg/disc [1] [mm],growth inhibition near paper discs [2],fold more efficient CytA processing than for 22–26 (CytA),Km (CytA) [µM],kcat (CytA) [s⁻¹],IC50 (MDA-MB-468 cells) [nM]
"CC[C@@]1(O)C[C@H](O[C@H]2C[C@H](N(C)C)[C@H](O[C@H]3C[C@H](O)[C@H](O[C@H]4CC[C@H](O)[C@H](C)O4)[C@H](C)O3)[C@H](C)O2)c2c(O)c3c(c(O)c2[C@H]1O[C@H]1C[C@H](N(C)C)[C@H](O[C@H]2C[C@H](O)[C@H](O[C@H]4CC[C@H](O)[C@H](C)O4)[C@H](C)O2)[C@H](C)O1)C(=O)c1cccc(O)c1C3=O [Compound 7, cosmomycin D]",16,little to no growth inhibition,2–3 fold,17.9,0.0132,–
"CC[C@@]1(O)C[C@H](O[C@H]2C[C@H](N(C)C)[C@@H](O[C@H]3C[C@H](O)[C@@H](O[C@H]4CC[C@H](O)[C@H](C)O4)[C@H](C)O3)[C@H](C)O2)c2c(O)c3c(c(O)c2[C@H]1O[C@H]1C[C@H](N(C)C)[C@@H](O[C@H]2CC[C@H](O[C@H]4CC[C@H](O)[C@H](C)O4)[C@H](C)O2)[C@H](C)O1)C(=O)c1cccc(O)c1C3=O [Compound 6, cosmomycin C]",16,little to no growth inhibition,2–3 fold,14.3,0.0118,210
